What was measured:
[1] = system: primary tumor cells from MCL patients; test: Cell viability by annexin-V/PI staining and flow cytometry; format: cell-based, human; conditions: six MCL patients, 24 hours; FTY720 2.5 μM, immobilized milatuzumab 5 μg/ml
Experimental: FIG. 4. FTY720 sensitizes MCL cell lines and primary patient tumor cells to milatuzumab-mediated cytotoxicity. (A) Four MCL cell lines and primary cells from 6 patients were treated with FTY720 and/or milatuzumab plus cross-linking antibodies at the indicated concentrations. (B) Patient characteristics. (C) Individual patient responses. (D) Representative histograms summarizing patient responses. Cell death was determined by annexin V/PI staining and flow cytometry at 24 hours. Data are shown as the percentage of annexin V−/PI− cells (live cells) and are normalized to untreated controls.
Primary tumor cells were isolated from the peripheral blood/lymph nodes of patients with MCL. All patients studied were diagnosed with MCL according to the World Health Organization (WHO) classification of tumors (Swerdlow, 2008, World Health Organization Classification of Tumours of Haematopoetic and Lymphoid Tissues (ed 4th ed.) Lyon, France, International Agency on Research for Cancer). All samples contained at least 85% of CD19^+/CD20^+ B cells detected by flow cytometry. […]
To assess lysosomal volume, FTY720 treated cells were incubated with LYSOTRACKER™ green DND-26. […] Cell viability was measured at 24 hours by dual staining with annexin-V FITC and propidium iodide (PI). A total of 10,000 events were collected and analyzed using WinMDI. […]

WSU-FSCCL NHL cells = test: Cytotoxicity of milatuzumab with GAH crosslinking, with and without IFN-γ; format: cell-based; conditions: in vitro
Experimental: (§1) We examined whether the ability of anti-CD74 MAbs to kill cancer cells can be increased by using IFN-γ as an inducer of antigen expression. Using a panel of diverse cancer cell lines (including NHL, MM, GBM, and pancreatic and colonic carcinomas), we examined IFN-γ-induced changes in surface and cytoplasmic CD74 expression. Sensitivity of the malignant cells to milatuzumab was assessed with and without IFN-γ by cytotoxicity assays.
(§2) The cytotoxicity of anti-CD74 antibodies was examined in the presence or absence of IFN-γ (not shown). As previously observed, in vitro cytotoxicity of milatuzumab required crosslinking (Stein, et al., Blood, 104: 3705-11, 2004). Goat anti-human IgG (GAH) was used for crosslinking in these experiments.

human AML cell lines = test: Proliferation assays, milatuzumab with/without IFN-γ; format: cell-based
Experimental: CD74 expression in bone marrow biopsy (BMB) specimens from non-M3 AML patients was evaluated by immunohistochemistry and, for 3 human AML cell lines, by flow cytometry, with/without permeabilization and with/without IFN-γ (40 and 200 U/mL). These cell lines were also tested in proliferation assays for responses to milatuzumab, with/without IFN-γ. In 13/14 BMB specimens, there was moderate to strong CD74 expression by leukemic blasts, which was mostly intracellular, usually with a perinuclear distribution (data not shown). […] IFN-γ induced intracellular CD74 in all 3 lines (from 85%-868%) (not shown).

[2] = system: Jeko cells engrafted in SCID mice; test: Preclinical model of human MCL in SCID mice, survival; format: in vivo, mouse; conditions: n=10/group, from day 15; FTY720 5 mg/kg i.p. daily 2 weeks; antibodies 15 mg/kg i.p. every three days
Experimental: Evaluation of in vivo therapeutic activity of FTY720 and milatuzumab in the preclinical MCL model. SCID mice were injected i.v. with 40×10^6 JeKo cells and observed daily for signs of tumor burden.
Six to eight-week old female SCID mice (cb17 scid/scid) were purchased from Taconic Farms (Hudson, N.Y.) and maintained in pathogen-free, isolation cages. All animals were depleted of murine NK cells with intra-peritoneal (i.p.) injections of 0.2 mg of rat anti-mouse interleukin-2 receptor β monoclonal antibody (TMβ1) 1 day prior to engraftment with human tumor cell lines and then every week. Forty-eight hours post intravenous injection of 40×10^6 Jeko cells via tail vein, 50 mice were randomly distributed into 10 cages. Animals in groups of ten were treated starting at day 15 after engraftment. […] The third group was treated with FTY720 (5 mg/kg) every day for 2 weeks via i.p. The fourth group received milatuzumab (15 mg/kg) every three days, via i.p. injection. The fifth group received the combination of FTY720 and milatuzumab. Animals were monitored daily for signs of tumor burden, including hind limb paralysis, respiratory distress, weight loss, ruffled coat, and distended abdomen. Body weight was measured weekly for the first 3 weeks and then daily. […]

[3] = system: Capan-1, Aspc-1, LoVo, HT-29, U87, U118 cells; test: Cytotoxicity of milatuzumab with and without crosslinking agent or IFN-γ; format: cell-based; conditions: regardless of crosslinking agent or IFN-γ
Experimental: as §1, §2

Substance: milatuzumab: fully humanized monoclonal antibody specific for CD74
- average cell death [1]: 50%
- increased killing after IFN-γ exposure (WSU-FSCCL NHL cells): 33%
- growth inhibition (human AML cell lines; first responding AML line, with IFN-γ): 44.8%
- growth inhibition (human AML cell lines; first responding AML line, without IFN-γ): 23.7%
- growth inhibition (human AML cell lines; second responding AML line, with IFN-γ): 30.9%
- growth inhibition (human AML cell lines; second responding AML line, without IFN-γ): −3.9%
- median survival [2]: 33.5 days
- cell killing [3]: unable to kill

Source: patent US8591892B2, “FTY720 increases CD74 expression and sensitizes cancer cells to anti-CD74 antibody-mediated cell death” (The Ohio State University, priority 2011, dated 2013)
